Measurements taken from PubChem BioAssay AID330 (DTP/NCI, 2004).
Several values for one entry are separate records, joined by “and”; a condition that tells them apart may be missing. Identical values can stand only once. Toxic doses and inconclusive results are not listed. How the source made its calls: active means survival T/C of 150% or more; inactive means T/C below 125% in these data.

Tested on: P388 leukemia ip, CD2F1 mice, survival T/C
Test: NCI In Vivo Anticancer Drug Screen. Data for tumor model P388 Leukemia (intraperitoneal) in CD2F1 (CDF1) mice
Details: endpoint: median survival time, higher = longer survival
Summary of the method: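 Mice carrying the transplanted tumor received test compound or vehicle. Survival was recorded in each group, and the value is the treated-group measurement divided by that of the vehicle-treated control group.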

[1] = dose: 50.0 mg/kg/injection, schedule: Q01DX005 (ip), vehicle: saline with Tween-80
[2] = dose: 100.0 mg/kg/injection, schedule: Q01DX005 (ip), vehicle: saline with Tween-80
[3] = dose: 200.0 mg/kg/injection, schedule: Q01DX005 (ip), vehicle: saline with Tween-80
[4] = dose: 100.0 mg/kg/injection, schedule: Q04DX003 (ip), vehicle: Klucel (hydroxypropylcellulose) (HPC)
[5] = dose: 200.0 mg/kg/injection, schedule: Q04DX003 (ip), vehicle: Klucel (hydroxypropylcellulose) (HPC)
[6] = dose: 400.0 mg/kg/injection, schedule: Q04DX003 (ip), vehicle: Klucel (hydroxypropylcellulose) (HPC)
[7] = dose: 100.0 mg/kg/injection, schedule: Q01DX009 (ip), vehicle: saline
[8] = dose: 200.0 mg/kg/injection, schedule: Q01DX009 (ip), vehicle: saline
[9] = dose: 25.0 mg/kg/injection, schedule: Q01DX009 (ip), vehicle: saline
[10] = dose: 50.0 mg/kg/injection, schedule: Q01DX009 (ip), vehicle: saline
[11] = dose: 12.5 mg/kg/injection, schedule: Q01DX009 (ip), vehicle: Klucel (hydroxypropylcellulose) (HPC)
[12] = dose: 25.0 mg/kg/injection, schedule: Q01DX009 (ip), vehicle: Klucel (hydroxypropylcellulose) (HPC)
[13] = dose: 50.0 mg/kg/injection, schedule: Q01DX005 (ip), vehicle: Klucel (hydroxypropylcellulose) (HPC)
[14] = dose: 100.0 mg/kg/injection, schedule: Q01DX005 (ip), vehicle: Klucel (hydroxypropylcellulose) (HPC)
[15] = dose: 200.0 mg/kg/injection, schedule: Q01DX005 (ip), vehicle: Klucel (hydroxypropylcellulose) (HPC)
[16] = dose: 50.0 mg/kg/injection, schedule: Q01DX009 (ip), vehicle: Klucel (hydroxypropylcellulose) (HPC)
[17] = dose: 100.0 mg/kg/injection, schedule: Q01DX009 (ip), vehicle: Klucel (hydroxypropylcellulose) (HPC)

Measured: T/C

O=c1oc2cc(-c3c(O)c4ccccc4oc3=O)c(O)cc2s1
inactive: dose: 100.0 mg/kg/injection, schedule: Q01DX001 (ip), vehicle: Klucel (hydroxypropylcellulose) (HPC) 113 % of control | dose: 200.0 mg/kg/injection, schedule: Q01DX001 (ip), vehicle: Klucel (hydroxypropylcellulose) (HPC) 104 % of control | dose: 400.0 mg/kg/injection, schedule: Q01DX001 (ip), vehicle: Klucel (hydroxypropylcellulose) (HPC) 106 % of control

CCOCCC(=O)NCC(=O)NC1C(CO)OC(Nc2ncnc3nc[nH]c23)C(O)C1O (centres undefined)
inactive: dose: 3.12 mg/kg/injection, schedule: Q01DX009 (ip), vehicle: water 98 % of control | dose: 6.25 mg/kg/injection, schedule: Q01DX009 (ip), vehicle: water 88 % of control | dose: 12.5 mg/kg/injection, schedule: Q01DX009 (ip), vehicle: water 98 % of control | dose: 25.0 mg/kg/injection, schedule: Q01DX009 (ip), vehicle: water 106 % of control | dose: 50.0 mg/kg/injection, schedule: Q01DX009 (ip), vehicle: water 101 % of control

Cc1cc2nc(=O)cc(CCl)n2c(=O)n1C(=O)C(O)C(O)C(O)CO (centres undefined)
inactive: [1] 109 % of control | [2] 117 % of control | [3] 113 % of control

C=CCCC(=O)SC(C)(C)C
inactive: [4] 112 % of control | [5] 110 % of control | [6] 103 % of control

COc1cc(/C=N/n2cnnc2)cc(OC)c1OC
inactive: [7] 100 % of control | [8] 108 % of control | dose: 400.0 mg/kg/injection, schedule: Q01DX009 (ip), vehicle: saline 100 % of control

[N-]=[N+]=CC(=O)c1ccc(Cl)cc1
inactive: [4] 108 % of control | [5] 115 % of control | [6] 107 % of control

FC(F)(F)c1ccc2c(N/N=C/c3ccc(N(CCCl)CCCl)cc3)ccnc2c1
inactive: [4] 111 % of control | [5] 99 % of control | [6] 90 % of control

COc1ccc(NC(CCN2CCCCC2)=NC(C)(C)C)cc1
inactive: dose: 50.0 mg/kg/injection, schedule: Q01DX009 (ip), vehicle: saline with Tween-80 110 % of control | dose: 100.0 mg/kg/injection, schedule: Q01DX009 (ip), vehicle: saline with Tween-80 104 % of control | dose: 200.0 mg/kg/injection, schedule: Q01DX009 (ip), vehicle: saline with Tween-80 101 % of control

Cc1ccc(S(=O)(=O)N/N=C/c2c(-c3ccc(-c4ccccc4)cc3)nc3n2CCS3)cc1
inactive: dose: 100.0 mg/kg/injection, schedule: Q01DX001 (ip), vehicle: saline with Tween-80 100 % of control | dose: 200.0 mg/kg/injection, schedule: Q01DX001 (ip), vehicle: saline with Tween-80 102 % of control | dose: 400.0 mg/kg/injection, schedule: Q01DX001 (ip), vehicle: saline with Tween-80 90 % of control

CC1CCC(C(C)C)C(N)C1 (centres undefined)
inactive: dose: 25.0 mg/kg/injection, schedule: Q04DX002 (ip), vehicle: suspension in saline 100 % of control | dose: 50.0 mg/kg/injection, schedule: Q04DX002 (ip), vehicle: suspension in saline 93 % of control | dose: 100.0 mg/kg/injection, schedule: Q04DX002 (ip), vehicle: saline with Tween-80 89 % of control | dose: 100.0 mg/kg/injection, schedule: Q04DX002 (ip), vehicle: suspension in saline 102 % of control

C/C(=N\NC(=O)CCl)C(C)(C)C
inactive: [9] 111 % of control | [10] 109 % of control | [7] 103 % of control

S=C(Nc1nccs1)Nc1nccs1
inactive: dose: 3.13 mg/kg/injection, schedule: Q01DX009 (ip), vehicle: Klucel (hydroxypropylcellulose) (HPC) 98 % of control | dose: 6.25 mg/kg/injection, schedule: Q01DX009 (ip), vehicle: Klucel (hydroxypropylcellulose) (HPC) 98 % of control | [11] 95 % of control | [12] 92 % of control

CCCCCCOC(=O)Nc1nnc(SSC2=NN=CC2NC(=O)OCCCCCC)s1 (centres undefined)
inactive: dose: 100.0 mg/kg/injection, schedule: Q01DX001 (ip), vehicle: saline 91 % of control | dose: 200.0 mg/kg/injection, schedule: Q01DX001 (ip), vehicle: saline 90 % of control | dose: 400.0 mg/kg/injection, schedule: Q01DX001 (ip), vehicle: saline 90 % of control

C=CC(c1ccccc1)c1cc2c(cc1OCCC)OCO2 (centres undefined)
inactive: [13] 98 % of control | [14] 96 % of control | [15] 105 % of control

CCC[CH2][Ge](=[O])[CH2]CCC
inactive: [10] 103 % of control | [7] 102 % of control | [8] 88 % of control

N.N.O=C([O-])/C=C\C(=O)[O-].[Pt]
inactive: dose: 4.38 mg/kg/injection, schedule: Q04DX002 (ip), vehicle: saline with Tween-80 117 % of control

C=Cc1nc(N)nc(-c2ccc(C)cc2)n1
inactive: [13] 110 % of control | [14] 111 % of control | [15] 118 % of control

Clc1cccc(NN=Nc2ccccc2)c1
inactive: [16] 104 % of control | [17] 96 % of control | dose: 200.0 mg/kg/injection, schedule: Q01DX009 (ip), vehicle: Klucel (hydroxypropylcellulose) (HPC) 103 % of control

CCN(CC)Cc1cc(N=Nc2cc(OC)c(N=Nc3ccc([N+](=O)[O-])cc3)cc2OC)c2ccccc2c1O
inactive: [11] 110 % of control | [12] 100 % of control | [16] 107 % of control and 90 % of control | [17] 100 % of control (2×) and 94 % of control | dose: 400.0 mg/kg/injection, schedule: Q01DX009 (ip), vehicle: Klucel (hydroxypropylcellulose) (HPC) 101 % of control and 91 % of control

O=C1N[C@H]2CS(=O)(=O)C[C@H]2N1
inactive: [1] 100 % of control | [2] 104 % of control | [3] 93 % of control

COc1ccc(OC)c(NC(=O)Sc2c(Cl)c(Cl)nc(Cl)c2Cl)c1
inactive: [16] 120 % of control

NCC(=O)O
inactive: dose: 3.75 mg/kg/injection, schedule: Q01DX005 (ip), vehicle: saline 99 % of control | dose: 7.5 mg/kg/injection, schedule: Q01DX005 (ip), vehicle: saline 100 % of control | dose: 15.0 mg/kg/injection, schedule: Q01DX005 (ip), vehicle: saline 99 % of control and 94 % of control | [10] 94 % of control | [7] 105 % of control | [8] 110 % of control

CCCCn1c(C)nc2c(cnn2C)c1=O
inactive: [13] 114 % of control | [14] 101 % of control | [15] 108 % of control

CC(NCCc1ccccc1)C1CCOC1=O (centres undefined)
inactive: dose: 6.25 mg/kg/injection, schedule: Q01DX009 (ip), vehicle: saline 98 % of control | dose: 12.5 mg/kg/injection, schedule: Q01DX009 (ip), vehicle: saline 97 % of control and 102 % of control | [9] 103 % of control and 109 % of control | [10] 100 % of control and 97 % of control

CCCCCCC(=O)N1SC(NC(=O)OC)=Nc2ccccc21
inactive: dose: 50.0 mg/kg/injection, schedule: Q01DX005 (ip), vehicle: acetone 108 % of control | dose: 100.0 mg/kg/injection, schedule: Q01DX005 (ip), vehicle: acetone 102 % of control | dose: 200.0 mg/kg/injection, schedule: Q01DX005 (ip), vehicle: acetone 102 % of control

CC1(C)CC2(CC3(C1)SCCS3)OCCO2
inactive: dose: 100.0 mg/kg/injection, schedule: Q04DX003 (ip), vehicle: saline with Tween-80 98 % of control | dose: 200.0 mg/kg/injection, schedule: Q04DX003 (ip), vehicle: saline with Tween-80 99 % of control | dose: 400.0 mg/kg/injection, schedule: Q04DX003 (ip), vehicle: saline with Tween-80 97 % of control
